Assay results published in patent US12582731B2, “Method to decontaminate solid surface” (BIOMONETA RESEARCH PVT LTD, priority 2022, dated 2026).
Where “and” joins values, the source holds several entries; their conditions need not be identical. Equal values may be shown once.

Legend:
Format in all cases: cell-based
[1] = system: microbial load; assay: Microbial load reduction on CTAB-coated polyester cotton fabric, electric field with varying voltage; settings: for Microbial load reduction (Log10 scale) at 10 mins: polyester cotton fabric, 0.02±0.005% w/v coating, capacitance 0.05 μF
Procedure: Another set of experiments were conducted wherein the procedure for coating of QAC (CTAB) onto the polyester cotton fabric was identical to the procedure described in Example 1. The CTAB concentration employed was 0.02±0.005% w/v and the final coated amount of QAC (CTAB) was between 0.01-0.05 mg/cm^2 of the solid surface. The electric field in this experiment was applied via. switch mode power supply (SMPS).

[2] = system: microbial load; assay: Microbial load reduction on QAC-coated metal surface (aluminium plate) with or without electric field
Procedure: The effect of QAC coating and electric field application on non-flexible/hard solid surfaces was analysed. The solid surface analysed was a metal surface (aluminium plate). The coating procedure of QAC (cetrimonium salt—CTAB) was identical to the procedure described in Example 1. The final coated amount of CTAB was between 0.01-0.05 mg/cm^2 of the solid surface. The electric field in this experiment was applied via. switch mode power supply (SMPS) with a voltage of 4 kV/cm coupled with a capacitance of 0.05 μF for various time-periods.
It was observed that when the metal was coated with low concentration of cetrimonium salt (CTAB) followed by application of electric field, the subjected microbial load was completely eliminated (>7 log10 reduction in microbial load or >99.99999% reduction in microbial load) within 10 minutes [Experiment No. 4]. […] Lastly, under normal conditions, when the metal was left undisturbed, the microbial load remained largely unaltered over a period of 30 minutes [Experiment No. 1].

[3] = system: microbial load; assay: Microbial load reduction on CTAB-coated polyester cotton fabric, electric field with varying capacitance; settings: for Microbial Load Reduction (Log10 Scale): polyester cotton fabric 90:10, 0.02±0.005% w/v coating, electric field 4 kV/cm DC
Procedure: The effect of QAC coating and varying electric field application on solid surfaces was analysed. The solid surface analysed was polyester cotton fabric in the ratio 90:10. The procedure for coating of QAC (CTAB) onto the said polyester cotton fabric was identical to the procedure described in Example 1. The CTAB concentration employed was 0.02±0.005% w/v and the final coated amount of QAC (CTAB) was between 0.01-0.05 mg/cm^2 of the solid surface. The electric field in this experiment was applied via. switch mode power supply (SMPS).

[4] = system: microbial load; assay: Microbial load reduction on QAC-coated cotton cloth with or without electric field; settings: for Microbial Load Reduction (Log10 Scale): cotton cloth coated with 0.01% w/v
Procedure: The effect of QAC coating and electric field application on flexible solid surfaces was analysed. The solid surface analysed was fabric (cotton cloth). The procedure for coating of QAC (CTAB or benzalkonium chloride) onto the cotton cloth was identical to the procedure described in Example 1. The final coated amount of QAC (CTAB or benzalkonium chloride) was between 0.01-0.05 mg/cm^2 of the solid surface. The electric field in this experiment was applied via. switch mode power supply (SMPS) with a voltage of 4 kV/cm coupled with a capacitance of 0.05 μF for various time-periods.
Reduction in microbial load was analysed using different methods.

[5] = system: microbial load; assay: Microbial load reduction on cotton cloth coated with quaternary ammonium compound alone; settings: no electric field
Procedure: The solid surface (cotton cloth) was suspended in a solution containing cetyltrimethylammonium bromide (CTAB) or alkyl dimethyl benzyl ammonium chloride (benzalkonium chloride) at various concentrations for about 2 hours. The solid surfaces were then heat dried in a furnace where the temperature was set at about 80° C., for about 8 hours. Once dried, the solid surfaces coated with QAC were ready to be used for various applications.
Reduction in microbial load was analysed at different concentrations of QACs.

CCCCCCCCCCCCCCCC[N+](C)(C)C.[Br-] [CTAB, cetyltrimethylammonium bromide]
reduction in the microbial load ([1]; coating followed by electric field at voltage lower than 2 kV/cm (0.5, 0.75, 1 or 1.25 kV/cm)): no notable reduction in the microbial load
Microbial load reduction (Log10 scale) at 10 mins ([1]; applied voltage 0.5 kV/cm): 1.18 Log10
Microbial load reduction (Log10 scale) at 10 mins ([1]; applied voltage 0.75 kV/cm): 1.22 Log10
Microbial load reduction (Log10 scale) at 10 mins ([1]; applied voltage 1 kV/cm): 1.44 Log10
Microbial load reduction (Log10 scale) at 10 mins ([1]; applied voltage 1.25 kV/cm): 1.68 Log10
Microbial load reduction (Log10 scale) at 10 mins ([1]; applied voltage 2 kV/cm): 7.68 Log10
Microbial load reduction (Log10 scale) at 10 mins ([1]; applied voltage 2.5 kV/cm): 8.78 Log10
Microbial load reduction (Log10 scale) at 10 mins ([1]; applied voltage 3 kV/cm): 9.42 Log10
Microbial Load Reduction (Log10 Scale) ([2]; Metal (aluminium plate) + QAC 0.01% w/v + Electric Field (SMPS, 4 kV/cm, 0.05 μF), 0 mins): 0.00 Log10
Microbial Load Reduction (Log10 Scale) ([2]; Metal (aluminium plate) + QAC 0.01% w/v + Electric Field (SMPS, 4 kV/cm, 0.05 μF), 5 mins): 5.55 Log10
Microbial Load Reduction (Log10 Scale) ([2]; Metal (aluminium plate) + QAC 0.01% w/v + Electric Field (SMPS, 4 kV/cm, 0.05 μF), 10 mins): 7.51 Log10
Microbial Load Reduction (Log10 Scale) ([2]; Metal (aluminium plate) + QAC 0.01% w/v + Electric Field (SMPS, 4 kV/cm, 0.05 μF), 20 mins): 7.51 Log10
Microbial Load Reduction (Log10 Scale) ([2]; Metal (aluminium plate) + QAC 0.01% w/v + Electric Field (SMPS, 4 kV/cm, 0.05 μF), 30 mins): 7.51 Log10
Microbial Load Reduction (Log10 Scale) ([2]; Metal (aluminium plate) + QAC 0.01% w/v, no electric field, 0 mins): 0.00 Log10
Microbial Load Reduction (Log10 Scale) ([2]; Metal (aluminium plate) + QAC 0.01% w/v, no electric field, 5 mins): 0.22 Log10
Microbial Load Reduction (Log10 Scale) ([2]; Metal (aluminium plate) + QAC 0.01% w/v, no electric field, 10 mins): 0.42 Log10
Microbial Load Reduction (Log10 Scale) ([2]; Metal (aluminium plate) + QAC 0.01% w/v, no electric field, 20 mins): 0.57 Log10
Microbial Load Reduction (Log10 Scale) ([2]; Metal (aluminium plate) + QAC 0.01% w/v, no electric field, 30 mins): 0.95 Log10
reduction in the microbial load ([2]; metal coated with CTAB alone, at 30 minutes (Experiment No. 3)): no significant reduction in the microbial load
reduction in the microbial load ([3]; coating followed by electric field at capacitance 0.00025 μF or 0.000025 μF (Experiments 4 and 5)): a notable reduction in the microbial load was observed only around 5 minutes
Microbial Load Reduction (Log10 Scale) ([3]; capacitance 0.000025 μF, 3 mins): 1.01 Log10
Microbial Load Reduction (Log10 Scale) ([3]; capacitance 0.000025 μF, 4 mins): 2.09 Log10
Microbial Load Reduction (Log10 Scale) ([3]; capacitance 0.000025 μF, 5 mins): 3.20 Log10
Microbial Load Reduction (Log10 Scale) ([3]; capacitance 0.00025 μF, 3 mins): 1.01 Log10
Microbial Load Reduction (Log10 Scale) ([3]; capacitance 0.00025 μF, 4 mins): 3.20 Log10
Microbial Load Reduction (Log10 Scale) ([3]; capacitance 0.00025 μF, 5 mins): 4.44 Log10
Microbial Load Reduction (Log10 Scale) ([3]; capacitance 0.0025 μF, 3 mins): 2.12 Log10
Microbial Load Reduction (Log10 Scale) ([3]; capacitance 0.0025 μF, 4 mins): 3.27 Log10
Microbial Load Reduction (Log10 Scale) ([3]; capacitance 0.0025 μF, 5 mins): 6.78 Log10
Microbial Load Reduction (Log10 Scale) ([3]; capacitance 0.025 μF, 3 mins): 4.32 Log10
Microbial Load Reduction (Log10 Scale) ([3]; capacitance 0.025 μF, 4 mins): 6.78 Log10
Microbial Load Reduction (Log10 Scale) ([3]; capacitance 0.025 μF, 5 mins): 6.78 Log10
Microbial Load Reduction (Log10 Scale) ([3]; capacitance 0.05 μF, 3 mins): 4.44 Log10
Microbial Load Reduction (Log10 Scale) ([3]; capacitance 0.05 μF, 4 mins): 6.78 Log10
Microbial Load Reduction (Log10 Scale) ([3]; capacitance 0.05 μF, 5 mins): 6.78 Log10
log10 reduction in microbial load ([4]; coated cotton cloth not subjected to electric field, until 30 minutes (Experiment 1 Trial 1 and 3)): ≤ 2.16 log10
Microbial Load Reduction (Log10 Scale) ([4]; With Electric Field (SMPS, 4 kV/cm, 0.05 μF), 0 mins): 0.00 Log10
Microbial Load Reduction (Log10 Scale) ([4]; With Electric Field (SMPS, 4 kV/cm, 0.05 μF), 10 mins): 7.48 Log10 and 7.30 Log10
Microbial Load Reduction (Log10 Scale) ([4]; With Electric Field (SMPS, 4 kV/cm, 0.05 μF), 30 mins): 7.48 Log10 and 7.30 Log10
Microbial Load Reduction (Log10 Scale) ([4]; Without Electric Field, 0 mins): 0.00 Log10
Microbial Load Reduction (Log10 Scale) ([4]; Without Electric Field, 10 mins): 1.09 Log10 and 1.06 Log10
Microbial Load Reduction (Log10 Scale) ([4]; Without Electric Field, 30 mins): 2.16 Log10 and 2.15 Log10
Microbial Load Reduction (Log10 Scale) ([5]; cotton cloth coated with 0.01% w/v, 0 mins): 0.00 Log10
Microbial Load Reduction (Log10 Scale) ([5]; cotton cloth coated with 0.01% w/v, 10 mins): 1.11 Log10
Microbial Load Reduction (Log10 Scale) ([5]; cotton cloth coated with 0.01% w/v, 30 mins): 2.52 Log10
Microbial Load Reduction (Log10 Scale) ([5]; cotton cloth coated with 0.01% w/v, 45 mins): 4.35 Log10
Microbial Load Reduction (Log10 Scale) ([5]; cotton cloth coated with 0.01% w/v, 60 mins): 7.60 Log10
Microbial Load Reduction (Log10 Scale) ([5]; cotton cloth coated with 0.01% w/v, 90 mins): 7.60 Log10
Microbial Load Reduction (Log10 Scale) ([5]; cotton cloth coated with 0.05% w/v, 0 mins): 0.00 Log10
Microbial Load Reduction (Log10 Scale) ([5]; cotton cloth coated with 0.05% w/v, 10 mins): 1.18 Log10
Microbial Load Reduction (Log10 Scale) ([5]; cotton cloth coated with 0.05% w/v, 30 mins): 2.54 Log10
Microbial Load Reduction (Log10 Scale) ([5]; cotton cloth coated with 0.05% w/v, 45 mins): 5.12 Log10
Microbial Load Reduction (Log10 Scale) ([5]; cotton cloth coated with 0.05% w/v, 60 mins): 7.32 Log10
Microbial Load Reduction (Log10 Scale) ([5]; cotton cloth coated with 0.05% w/v, 90 mins): 7.32 Log10
Microbial Load Reduction (Log10 Scale) ([5]; cotton cloth coated with 0.1% w/v, 0 mins): 0.00 Log10
Microbial Load Reduction (Log10 Scale) ([5]; cotton cloth coated with 0.1% w/v, 10 mins): 7.41 Log10
Microbial Load Reduction (Log10 Scale) ([5]; cotton cloth coated with 0.1% w/v, 30 mins): 7.41 Log10
Microbial Load Reduction (Log10 Scale) ([5]; cotton cloth coated with 0.1% w/v, 45 mins): 7.41 Log10
Microbial Load Reduction (Log10 Scale) ([5]; cotton cloth coated with 0.1% w/v, 60 mins): 7.41 Log10
Microbial Load Reduction (Log10 Scale) ([5]; cotton cloth coated with 0.1% w/v, 90 mins): 7.41 Log10
Microbial Load Reduction (Log10 Scale) ([5]; cotton cloth coated with 0.25% w/v, 0 mins): 0.00 Log10
Microbial Load Reduction (Log10 Scale) ([5]; cotton cloth coated with 0.25% w/v, 10 mins): 7.45 Log10
Microbial Load Reduction (Log10 Scale) ([5]; cotton cloth coated with 0.25% w/v, 30 mins): 7.45 Log10
Microbial Load Reduction (Log10 Scale) ([5]; cotton cloth coated with 0.25% w/v, 45 mins): 7.45 Log10
Microbial Load Reduction (Log10 Scale) ([5]; cotton cloth coated with 0.25% w/v, 60 mins): 7.45 Log10
Microbial Load Reduction (Log10 Scale) ([5]; cotton cloth coated with 0.25% w/v, 90 mins): 7.45 Log10
Microbial Load Reduction (Log10 Scale) ([5]; cotton cloth coated with 0.5% w/v, 0 mins): 0.00 Log10
Microbial Load Reduction (Log10 Scale) ([5]; cotton cloth coated with 0.5% w/v, 10 mins): 7.00 Log10
Microbial Load Reduction (Log10 Scale) ([5]; cotton cloth coated with 0.5% w/v, 30 mins): 7.00 Log10
Microbial Load Reduction (Log10 Scale) ([5]; cotton cloth coated with 0.5% w/v, 45 mins): 7.00 Log10
Microbial Load Reduction (Log10 Scale) ([5]; cotton cloth coated with 0.5% w/v, 60 mins): 7.00 Log10
Microbial Load Reduction (Log10 Scale) ([5]; cotton cloth coated with 0.5% w/v, 90 mins): 7.00 Log10
Microbial Load Reduction (Log10 Scale) ([5]; cotton cloth coated with 0.75% w/v, 0 mins): 0.00 Log10
Microbial Load Reduction (Log10 Scale) ([5]; cotton cloth coated with 0.75% w/v, 10 mins): 7.78 Log10
Microbial Load Reduction (Log10 Scale) ([5]; cotton cloth coated with 0.75% w/v, 30 mins): 7.78 Log10
Microbial Load Reduction (Log10 Scale) ([5]; cotton cloth coated with 0.75% w/v, 45 mins): 7.78 Log10
Microbial Load Reduction (Log10 Scale) ([5]; cotton cloth coated with 0.75% w/v, 60 mins): 7.78 Log10
Microbial Load Reduction (Log10 Scale) ([5]; cotton cloth coated with 0.75% w/v, 90 mins): 7.78 Log10
